# US6723897B2, “Methods for controlling gibberellin levels” (Monsanto Technology, LLC, priority 1998, dated 2004)
# Legend:
# [1] = Particulate material present in solutions after mixing; type: physicochemical; conditions: for solubility in water during imbibition: 0.25 mg/ml treatment solutions
# Experimental: Each of the compounds noted above is weighed to the nearest 0.1 mg in a pre-tarred 1.5-ml polypropylene vial with a screw-top lid. Absolute ethanol is added to the weighed powder to prepare a 25 mg/ml solution. Solutions are thoroughly mixed using a vortex mixer. A stainless steel spatula is used to crush any particulate material remaining after extensive mixing. Vials are left overnight at room temperature, and then remixed to form the concentrated ethanol stock solutions. The presence of undissolved material is noted throughout this procedure.
# [2] = test system: transgenic line 719 soybean; test: Field trial of seed coatings under soil compaction / different soils, GA-deficient soybean; type: in vivo, Glycine max; conditions: for Count (emergence) / Dwarfs (number of dwarfs not rescued) / Dwarfs (number not rescued): Line 719
# [3] = test system: wild-type soybean line A4922; test: Field trial of seed coating application rates, wild-type soybean
# Experimental: GA3, GA3-3-acetate, GA5, GA9, and GA12 are evaluated in further field trials. […] The objectives of these tests are: 1) to determine if seed coatings, as compared to imbibition, of GA compounds facilitate rescue of constitutively GA-deficient transgenic dwarf soybeans (transgenic lines 719−2 plus 719+17) without causing elongation of wild-type soybeans (line A4922), and 2) to determine the seed treatment rate ranges for each of the selected GA compounds that would provide rescue of constitutively GA-deficient transgenic dwarf soybeans (transgenic lines 719−2 plus 719+17) without causing elongation of wild-type soybeans (line A4922).
# Seeds are treated with GA3, GA5, GA9, GA12, and GA3-3-acetate at rates of 0, 0.1, 1, 10, and 100 μg/seed. These GA compounds are applied to the seeds using a Hege 11 seed treater (Hans-Ulrich Hege GmbH & Co., Waldenburg, Germany); 100% acetone is used as the carrier solvent. The amount of liquid introduced into the seed treater is six fluid ounces/100 lbs seed rate. In addition, GA12 is tested at 50 μg/seed. The untreated control (UTC) consisted of dry, untreated seeds. Seeds of constitutively GA-deficient transgenic dwarf soybean line 719 and wild-type A4922 are sown in both light and heavy soil. The planting depth is 0.5 to 1 inch (1.27 to 2.54 cm); watering is via drip irrigation. The experiment is carried out in three repetitions, using 25 seeds/plot (one five foot (152.4 cm) long row) for line 719, and 75 seeds/plot (two eight foot (243.8 cm) rows) for line A4922. Observations included total emergence, number of dwarfs not rescued, uniformity in plant height, average plant height, visual notes, and digital photos.
# In all the experiments reported in Tables 17-24, treatments are replicated three times in a randomized block design. Data are analyzed using LSD (least significant difference) 0.05 probability using the PRM 5.0 Statistical Analysis Program (SAS Institute, North Carolina).
# [4] = test system: non-transgenic soybean line A4922; test: Field trial of seed coatings under soil compaction / different soils, wild-type soybean; type: in vivo, Glycine max; conditions: for Count (emergence) / Height (total plant height): A4922
# Experimental: The second trial (data reported in Tables 22-24) tested the precursors under conditions of soil compaction.
# As noted above, the second trial tested the noted precursors under conditions of soil compaction. These experiments are performed in the same manner as in the first trial, except that the soil is compacted with an all-terrain vehicle.
# “Height” equals total plant height in cm.
# [5] = Heavy soil - Loose, target rate 1.0 μg/seed, Table 23
# [6] = Heavy soil - Loose, target rate 10.0 μg/seed, Table 23
# [7] = Heavy soil - Loose, target rate 40.0 μg/seed, Table 23
# [8] = Heavy soil - compacted, target rate 1.0 μg/seed, Table 23
# [9] = Heavy soil - compacted, target rate 10.0 μg/seed, Table 23
# [10] = Heavy soil - compacted, target rate 40.0 μg/seed, Table 23
# [11] = Heavy soil - loose, target rate 40.0 μg/seed, Table 22
# [12] = Light soil - Compacted, target rate 40.0 μg/seed, Table 22
# [13] = Light soil - Loose, target rate 1.0 μg/seed, Table 24
# [14] = Light soil - Loose, target rate 10.0 μg/seed, Table 24
# [15] = Light soil - Loose, target rate 40.0 μg/seed, Table 24
# [16] = Light soil - compacted, target rate 1.0 μg/seed, Table 24
# [17] = Light soil - compacted, target rate 10.0 μg/seed, Table 24
# [18] = Light soil - compacted, target rate 40.0 μg/seed, Table 24
smiles,measurement,setting,value
C=C1C[C@]23C[C@H]1CC[C@H]2[C@]1(C)CCC[C@@](C)(C(=O)O)[C@H]1[C@@H]3C(=O)O [GA12],solubility in water during imbibition,[1],less soluble in water during imbibition
same,"Particulate material present, Initial Mixing",[1]; 25 mg/ml in absolute ethanol,YES
same,"Particulate material present, O/N Incubation","[1]; 25 mg/ml in ethanol, overnight at room temperature, remixed",YES
same,Count (emergence),[2]; [5],36.0 ab
same,Dwarfs (number of dwarfs not rescued),[2]; [5],10.0 a
same,Count (emergence),[2]; [6],35.3 abc
same,Dwarfs (number of dwarfs not rescued),[2]; [6],7.0 b
same,Count (emergence),[2]; [7],35.3 abc
same,Dwarfs (number of dwarfs not rescued),[2]; [7],3.3 c
same,Count (emergence),[2]; [8],18.7 ab
same,Dwarfs (number of dwarfs not rescued),[2]; [8],4.0 a
same,Count (emergence),[2]; [9],13.0 b-e
same,Dwarfs (number of dwarfs not rescued),[2]; [9],2.0 b
same,Count (emergence),[2]; [10],22.7 a
same,Dwarfs (number of dwarfs not rescued),[2]; [10],1.3 bc
same,Count (emergence),[2]; [11],35 abc
same,Dwarfs (number of dwarfs not rescued),[2]; [11],3.3 c
same,Count (emergence),[2]; [12],42 a
same,Dwarfs (number of dwarfs not rescued),[2]; [12],3.7 bc
same,Count (emergence),[2]; [13],46.3 a
same,Dwarfs (number not rescued),[2]; [13],17.3 b
same,Count (emergence),[2]; [14],48.3 a
same,Dwarfs (number not rescued),[2]; [14],11.3 c
same,Count (emergence),[2]; [15],46.0 a
same,Dwarfs (number not rescued),[2]; [15],7.7
same,Count (emergence),[2]; [16],40.3 a
same,Dwarfs (number not rescued),[2]; [16],8.3 a
same,Count (emergence),[2]; [17],40.0 ab
same,Dwarfs (number not rescued),[2]; [17],4.3 b
same,Count (emergence),[2]; [18],42.0 a
same,Dwarfs (number not rescued),[2]; [18],3.7 bc
same,rank of potential for rescuing GA-deficient dwarf soybeans without decreasing emergence,[2]; based on the last two field trials,GA9>GA5>GA3-3-acetate>GA3>GA12
same,"A4922 Height, cm, Heavy soil",[3]; 0.1 μg compound per seed,5.3 fg·cm
same,"A4922 Height, cm, Light soil",[3]; 0.1 μg compound per seed,5.7 f-i cm
same,"No. A4922 Emerged, Heavy soil",[3]; 0.1 μg compound per seed,24.3 g·days
same,"No. A4922 Emerged, Light soil",[3]; 0.1 μg compound per seed,45.7 c-h
same,"A4922 Height, cm, Heavy soil",[3]; 1 μg compound per seed,5.7 efg cm
same,"A4922 Height, cm, Light soil",[3]; 1 μg compound per seed,5.0 g-i cm
same,"No. A4922 Emerged, Heavy soil",[3]; 1 μg compound per seed,48.0 ab
same,"No. A4922 Emerged, Light soil",[3]; 1 μg compound per seed,55.7 ab
same,"A4922 Height, cm, Heavy soil",[3]; 10 μg compound per seed,5.0 fgh cm
same,"A4922 Height, cm, Light soil",[3]; 10 μg compound per seed,3.7 hij cm
same,"No. A4922 Emerged, Heavy soil",[3]; 10 μg compound per seed,19.0 fg
same,"No. A4922 Emerged, Light soil",[3]; 10 μg compound per seed,46.3 c-g
same,"A4922 Height, cm, Heavy soil",[3]; 50 μg compound per seed,2.7 hi cm
same,"A4922 Height, cm, Light soil",[3]; 50 μg compound per seed,3.0 ij cm
same,"No. A4922 Emerged, Heavy soil",[3]; 50 μg compound per seed,40.0 bcd
same,"No. A4922 Emerged, Light soil",[3]; 50 μg compound per seed,51.3 bcd
same,"A4922 Height, cm, Heavy soil",[3]; 100 μg compound per seed,2.3 i cm
same,"A4922 Height, cm, Light soil",[3]; 100 μg compound per seed,2.7 J·cm
same,"No. A4922 Emerged, Heavy soil",[3]; 100 μg compound per seed,38.7 bcd
same,"No. A4922 Emerged, Light soil",[3]; 100 μg compound per seed,53.0 bc
same,Count (emergence),[4]; [5],36.0 a
same,Height (total plant height),[4]; [5],4.7e-15 g·cm
same,Count (emergence),[4]; [6],26.7 b-c
same,Height (total plant height),[4]; [6],4.0 g·cm
same,Count (emergence),[4]; [7],33.0 ab
same,Height (total plant height),[4]; [7],4.3 g·cm
same,Count (emergence),[4]; [8],17.0 a
same,Height (total plant height),[4]; [8],4.3 cde cm
same,Count (emergence),[4]; [9],12.3 abc
same,Height (total plant height),[4]; [9],3.7 e cm
same,Count (emergence),[4]; [10],13.7 abc
same,Height (total plant height),[4]; [10],4.0 de cm
same,Count (emergence),[4]; [11],33 ab
same,Height (total plant height),[4]; [11],4.3 g·cm
same,Count (emergence),[4]; [12],41 a
same,Height (total plant height),[4]; [12],4.3 g·cm
same,Count (emergence),[4]; [13],43.7 abc
same,Height (total plant height),[4]; [13],4.0 hi cm
same,Count (emergence),[4]; [14],47.7 a
same,Height (total plant height),[4]; [14],3.7 i cm
same,Count (emergence),[4]; [15],44.0 abc
same,Height (total plant height),[4]; [15],4.0 hi cm
same,Count (emergence),[4]; [16],39.3 ab
same,Height (total plant height),[4]; [16],4.3 g·cm
same,Count (emergence),[4]; [17],41.7 a
same,Height (total plant height),[4]; [17],4.0 g·cm
same,Count (emergence),[4]; [18],41.0 a
same,Height (total plant height),[4]; [18],4.3 g·cm
same,plant height dose/response in wild-type line A4922 (FIG. 40),"[4]; ten days after planting, compacted soil",inhibited plant height
C=C1C[C@@]23CC[C@H]4[C@@](C)(CCC[C@@]4(C)C(=O)O)[C@@H]2CC[C@@H]1C3 [kaurenoic acid],"Particulate material present, 100X Diln w/water",[1]; 0.25 mg/ml compound in water,YES
same,solubility in water during imbibition,[1],less soluble in water during imbibition
